Measurements published in ChEMBL document CHEMBL6120977, “Structure-Affinity-Pharmacokinetics Relationships of Novel 18F-Labeled 1,4-Diazepane Derivatives for Orexin 1 Receptor Imaging” (J Med Chem, 2024).
Each block holds one compound with its values, some of them ahead of it.

Tests used:
[1] = Biodistribution in male ddY mouse brain administered intravenously and measured at 60 mins postinjection by gamma counter analysis; type: ADME, organism-based; settings: in vivo, iv, 1 h
[2] = Biodistribution in male ddY mouse brain administered intravenously and measured at 10 mins postinjection by gamma counter analysis; type: ADME, organism-based; settings: in vivo, iv
[3] = Biodistribution in male ddY mouse pancreas administered intravenously and measured at 30 mins postinjection by gamma counter analysis; type: ADME, organism-based; settings: in vivo, iv, 0.5 h
[4] = Biodistribution in male ddY mouse liver administered intravenously and measured at 10 mins postinjection by gamma counter analysis; type: ADME, organism-based; settings: in vivo, iv
[5] = Biodistribution in male ddY mouse heart administered intravenously and measured at 30 mins postinjection by gamma counter analysis; type: ADME, organism-based; settings: in vivo, iv, 0.5 h
[6] = Biodistribution in male ddY mouse bone administered intravenously and measured at 60 mins postinjection by gamma counter analysis; type: ADME, organism-based, Bone element; settings: in vivo, iv, 1 h
[7] = Biodistribution in male ddY mouse pancreas administered intravenously and measured at 10 mins postinjection by gamma counter analysis; type: ADME, organism-based; settings: in vivo, iv
[8] = Biodistribution in male ddY mouse spleen administered intravenously and measured at 60 mins postinjection by gamma counter analysis; type: ADME, organism-based; settings: in vivo, iv, 1 h
[9] = Biodistribution in male ddY mouse blood administered intravenously and measured at 30 mins postinjection by gamma counter analysis; type: ADME, organism-based; settings: in vivo, iv, 0.5 h
[10] = Biodistribution in male ddY mouse liver administered intravenously and measured at 2 mins postinjection by gamma counter analysis; type: ADME, organism-based; settings: in vivo, iv
[11] = Biodistribution in male ddY mouse lung administered intravenously and measured at 60 mins postinjection by gamma counter analysis; type: ADME, organism-based; settings: in vivo, iv, 1 h
[12] = Biodistribution in male ddY mouse kidney administered intravenously and measured at 60 mins postinjection by gamma counter analysis; type: ADME, organism-based; settings: in vivo, iv, 1 h
[13] = Biodistribution in male ddY mouse bone administered intravenously and measured at 2 mins postinjection by gamma counter analysis; type: ADME, organism-based, Bone element; settings: in vivo, iv
[14] = Biodistribution in male ddY mouse pancreas administered intravenously and measured at 2 mins postinjection by gamma counter analysis; type: ADME, organism-based; settings: in vivo, iv
[15] = Biodistribution in male ddY mouse heart administered intravenously and measured at 60 mins postinjection by gamma counter analysis; type: ADME, organism-based; settings: in vivo, iv, 1 h
[16] = Biodistribution in male ddY mouse lung administered intravenously and measured at 2 mins postinjection by gamma counter analysis; type: ADME, organism-based; settings: in vivo, iv
[17] = Biodistribution in male ddY mouse pancreas administered intravenously and measured at 60 mins postinjection by gamma counter analysis; type: ADME, organism-based; settings: in vivo, iv, 1 h
[18] = Biodistribution in male ddY mouse lung administered intravenously and measured at 30 mins postinjection by gamma counter analysis; type: ADME, organism-based; settings: in vivo, iv, 0.5 h
[19] = Biodistribution in male ddY mouse spleen administered intravenously and measured at 2 mins postinjection by gamma counter analysis; type: ADME, organism-based; settings: in vivo, iv
[20] = Biodistribution in male ddY mouse lung administered intravenously and measured at 10 mins postinjection by gamma counter analysis; type: ADME, organism-based; settings: in vivo, iv
[21] = Biodistribution in male ddY mouse spleen administered intravenously and measured at 10 mins postinjection by gamma counter analysis; type: ADME, organism-based; settings: in vivo, iv
[22] = Biodistribution in male ddY mouse kidney administered intravenously and measured at 30 mins postinjection by gamma counter analysis; type: ADME, organism-based; settings: in vivo, iv, 0.5 h
[23] = Biodistribution in male ddY mouse blood administered intravenously and measured at 60 mins postinjection by gamma counter analysis; type: ADME, organism-based; settings: in vivo, iv, 1 h
[24] = Biodistribution in male ddY mouse kidney administered intravenously and measured at 2 mins postinjection by gamma counter analysis; type: ADME, organism-based; settings: in vivo, iv
[25] = Biodistribution in male ddY mouse stomach administered intravenously and measured per organ at 30 mins postinjection by gamma counter analysis; type: ADME, organism-based; settings: in vivo, iv, 0.5 h
[26] = Biodistribution in male ddY mouse intestine administered intravenously and measured at 30 mins postinjection by gamma counter analysis; type: ADME, organism-based; settings: in vivo, iv, 0.5 h
[27] = Biodistribution in male ddY mouse liver administered intravenously and measured at 30 mins postinjection by gamma counter analysis; type: ADME, organism-based; settings: in vivo, iv, 0.5 h
[28] = Biodistribution in male ddY mouse stomach administered intravenously and measured per organ at 60 mins postinjection by gamma counter analysis; type: ADME, organism-based; settings: in vivo, iv, 1 h
[29] = Biodistribution in male ddY mouse stomach administered intravenously and measured per organ at 10 mins postinjection by gamma counter analysis; type: ADME, organism-based; settings: in vivo, iv
[30] = Biodistribution in male ddY mouse brain administered intravenously and measured at 2 mins postinjection by gamma counter analysis; type: ADME, organism-based; settings: in vivo, iv
[31] = Biodistribution in male ddY mouse heart administered intravenously and measured at 10 mins postinjection by gamma counter analysis; type: ADME, organism-based; settings: in vivo, iv
[32] = Biodistribution in male ddY mouse intestine administered intravenously and measured at 2 mins postinjection by gamma counter analysis; type: ADME, organism-based; settings: in vivo, iv
[33] = Biodistribution in male ddY mouse brain administered intravenously and measured at 30 mins postinjection by gamma counter analysis; type: ADME, organism-based; settings: in vivo, iv, 0.5 h
[34] = Biodistribution in male ddY mouse intestine administered intravenously and measured at 60 mins postinjection by gamma counter analysis; type: ADME, organism-based; settings: in vivo, iv, 1 h
[35] = Biodistribution in male ddY mouse kidney administered intravenously and measured at 10 mins postinjection by gamma counter analysis; type: ADME, organism-based; settings: in vivo, iv
[36] = Biodistribution in male ddY mouse bone administered intravenously and measured at 10 mins postinjection by gamma counter analysis; type: ADME, organism-based, Bone element; settings: in vivo, iv
[37] = Biodistribution in male ddY mouse heart administered intravenously and measured at 2 mins postinjection by gamma counter analysis; type: ADME, organism-based; settings: in vivo, iv
[38] = Biodistribution in male ddY mouse stomach administered intravenously and measured per organ at 2 mins postinjection by gamma counter analysis; type: ADME, organism-based; settings: in vivo, iv
[39] = Biodistribution in male ddY mouse bone administered intravenously and measured at 30 mins postinjection by gamma counter analysis; type: ADME, organism-based, Bone element; settings: in vivo, iv, 0.5 h
[40] = Biodistribution in male ddY mouse intestine administered intravenously and measured at 10 mins postinjection by gamma counter analysis; type: ADME, organism-based; settings: in vivo, iv
[41] = Biodistribution in male ddY mouse blood administered intravenously and measured at 10 mins postinjection by gamma counter analysis; type: ADME, organism-based; settings: in vivo, iv
[42] = Biodistribution in male ddY mouse liver administered intravenously and measured at 60 mins postinjection by gamma counter analysis; type: ADME, organism-based; settings: in vivo, iv, 1 h
[43] = Biodistribution in male ddY mouse blood administered intravenously and measured at 2 mins postinjection by gamma counter analysis; type: ADME, organism-based; settings: in vivo, iv
[44] = Biodistribution in male ddY mouse spleen administered intravenously and measured at 30 mins postinjection by gamma counter analysis; type: ADME, organism-based; settings: in vivo, iv, 0.5 h
[45] = target: T1, Orexin/Hypocretin receptor type 1 (Homo sapiens, UniProt O43613); experiment: Displacement of […]5IBOM from OX1R (unknown origin) transfected in CHO cells assessed as inhibition constant incubated for 1.5 hrs by automated gamma-counter analysis; type: cell-based
T1 sequence (O43613 whole entry): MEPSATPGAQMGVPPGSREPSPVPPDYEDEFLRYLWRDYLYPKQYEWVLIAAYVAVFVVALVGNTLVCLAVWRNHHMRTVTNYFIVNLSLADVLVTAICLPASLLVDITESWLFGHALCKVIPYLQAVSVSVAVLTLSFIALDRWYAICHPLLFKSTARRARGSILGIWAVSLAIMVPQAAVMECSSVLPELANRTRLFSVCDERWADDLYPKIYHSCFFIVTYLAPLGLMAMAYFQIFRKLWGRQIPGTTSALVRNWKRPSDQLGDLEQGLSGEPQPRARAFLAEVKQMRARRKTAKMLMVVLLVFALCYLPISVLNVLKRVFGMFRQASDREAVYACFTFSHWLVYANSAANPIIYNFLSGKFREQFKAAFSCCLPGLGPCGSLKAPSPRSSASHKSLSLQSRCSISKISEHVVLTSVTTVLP

[46] = Selectivity ratio of Ki for OX2R (unknown origin) transfected in CHO cells to Ki for OX1R (unknown origin) transfected in CHO cells; type: cell-based
Orexin receptor type 2 = target: T2, Orexin receptor type 2 (Homo sapiens, UniProt O43614); experiment: Displacement of […]5IBOM from OX2R (unknown origin) transfected in CHO cells assessed as inhibition constant incubated for 1.5 hrs by automated gamma-counter analysis; type: cell-based
T2 sequence (O43614 whole entry): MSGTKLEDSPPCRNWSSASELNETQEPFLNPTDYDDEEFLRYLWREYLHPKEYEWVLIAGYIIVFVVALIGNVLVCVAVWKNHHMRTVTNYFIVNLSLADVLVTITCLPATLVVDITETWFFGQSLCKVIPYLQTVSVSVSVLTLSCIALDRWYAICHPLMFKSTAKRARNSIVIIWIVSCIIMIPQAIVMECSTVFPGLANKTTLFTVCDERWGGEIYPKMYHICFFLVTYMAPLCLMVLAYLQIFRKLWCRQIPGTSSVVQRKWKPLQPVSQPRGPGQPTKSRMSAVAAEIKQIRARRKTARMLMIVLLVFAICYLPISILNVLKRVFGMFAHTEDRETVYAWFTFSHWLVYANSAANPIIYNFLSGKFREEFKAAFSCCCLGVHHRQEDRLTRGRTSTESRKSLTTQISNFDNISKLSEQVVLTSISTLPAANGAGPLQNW

Drug uptake [1]: 0.09 % ID/g
Drug uptake [2]: 1.33 % ID/g
Drug uptake [3]: 0.56 % ID/g
Drug uptake [4]: 27.5 % ID/g
Drug uptake [5]: 0.67 % ID/g
Drug uptake [6]: 1.24 % ID/g
Drug uptake [7]: 2.88 % ID/g
Drug uptake [8]: 0.21 % ID/g
Drug uptake [9]: 1.1 % ID/g
Drug uptake [10]: 11.5 % ID/g
Drug uptake [11]: 0.61 % ID/g
Drug uptake [12]: 0.88 % ID/g
Drug uptake [13]: 1.5 % ID/g
Drug uptake [14]: 5.3 % ID/g
Drug uptake [15]: 0.42 % ID/g
Drug uptake [16]: 6 % ID/g
Drug uptake [17]: 0.36 % ID/g
Drug uptake [18]: 1.11 % ID/g
Drug uptake [19]: 2.15 % ID/g
Drug uptake [20]: 3.39 % ID/g
Drug uptake [21]: 1.77 % ID/g
Drug uptake [22]: 2.32 % ID/g
Drug uptake [23]: 0.55 % ID/g
Drug uptake [24]: 7.83 % ID/g
Drug uptake [25]: 1.18 %ID
Drug uptake [26]: 15.4 % ID/g
Drug uptake [27]: 20.4 % ID/g
Drug uptake [28]: 2.13 %ID
Drug uptake [29]: 0.98 %ID
Drug uptake [30]: 2.64 % ID/g
Drug uptake [31]: 2.48 % ID/g
Drug uptake [32]: 2.93 % ID/g
Drug uptake [33]: 0.29 % ID/g
Drug uptake [34]: 30.5 % ID/g
Drug uptake [35]: 4.37 % ID/g
Drug uptake [36]: 1.18 % ID/g
Drug uptake [37]: 6.04 % ID/g
Drug uptake [38]: 1.03 %ID
Drug uptake [39]: 0.76 % ID/g
Drug uptake [40]: 8.38 % ID/g
Drug uptake [41]: 3.05 % ID/g
Drug uptake [42]: 12.6 % ID/g
Drug uptake [43]: 4.79 % ID/g
Drug uptake [44]: 0.42 % ID/g
Structure (SMILES): C[C@H]1CN(c2nc3ccc(F)cc3s2)CCCN1C(=O)c1cc([18F])ccc1-n1nccn1

Ki [45]: 6.67 nM
Ki (Orexin receptor type 2): 19 nM
Structure (SMILES): C[C@H]1CN(c2nc3ccc(F)cc3s2)CCCN1C(=O)c1cc(C(F)(F)F)ccc1-n1nccn1
Ratio Ki [46]: 2.85
